Test results from patent publication US8563514B2, “Peptides and pharmaceutical compositions for treating connective tissue” (Metamorefix, priority 2007, dated 2013).
Entries after “also recorded” stand apart in the source; their conditions may differ.

How the values were obtained:
[1] = test system: human foreskin fibrobalsts (FF1); test: Cell attachment assay in monolayers (peptide-coated Sepharose beads), FF1; assay type: cell-based; conditions: for cell binding activity at the lower dose (words): 6 mg peptide/ml compared with 12 mg/ml; for time to saturated attachment: Conclusions b109, concentration and cell type not stated; for Nomarsky optics microscopy of peptide coated beads attached to FF1 (observation): 3 days to 3 weeks of incubation; for activity in comparison with the positive control PreC-gamma: FIG. 3b, cell type not stated
Procedure: (§1) 100 mg of dried CNBr-Sepharose Beads (yields 350 μl of swollen Sepharose Beads—gel) was introduced into a disposable polystyrene mini-column (FIG. 1), appropriate for the preparation of a 0.5-2 ml gel filtration column (Pierce, Prod #29920). The lower part of the columns is blocked by a thick glass filter and a stopper.
(§2) 3-4 ml total volume of HCl solution (1 mM) was added to the column, and the liquid was forced to flow under vacuum pressure through the gel. This process was repeated 5 times. The final aliquot of HCl was aspirated until cracks appeared in the gel cake. 2-3 ml aliquots of coupling buffer were immediately added to the washed beads and aspirated. This step was repeated 4-5 times. The high pH hydrolyzes and opens the active groups.
(§3) A peptide solution in coupling buffer prepared as above was immediately added to the activated SEPHAROSE BEADS Sepharose beads were used to fixate the peptides for all in-vitro assays in the column to a final binding of 6 mg peptide per ml SEPHAROSE BEADS gel. The column was closed and shaken overnight at 4° C. very gently to avoid mechanical breakage of SEPHAROSE BEADS. The bottom cap of the column was removed and the solution of ligand/buffer was collected as the Sepharose Beads settled on the filter. The OD280 of the collected buffer was checked to determine the concentration of uncoupled peptide. The gel was washed/aspirated with 5 volumes (˜2 ml) of coupling buffer and gently mixed. Any remaining active groups on the gel were blocked with blocking buffer for 2 hours at room temperature or overnight at 4° C. The Sepharose Beads gel with peptides was then washed by 2 cycles each of 5 gel volumes of: • a. 0.1 M Acetate buffer • b. Coupling buffer • c. Storing buffer: azide-coupling buffer: coupling buffer containing 0.1% NaN3 (final concentration)
(§4) The tested peptides (Table 1) were coupled to Sepharose Beads at two concentrations: 6 and 12 mg/ml Sepharose Beads. Sepharose Beads that underwent the coupling procedure without peptide addition (“naked Sepharose Beads”) served as a negative control (referred to herein as “Sepharose Beads—blank”). A cell binding assay was performed with 2 normal cell types: bovine aortal endothelial cells (BAEC) and human foreskin fibrobalsts (FF1). Sepharose Beads were added to 12 well culture plates with sub-confluent monolayer of the cultured cells (100-300 beads were added to each well). The fraction of Sepharose Beads attached to the monolayer was monitored at different times.

[2] = test system: bovine aortal endothelial cells (BAEC); test: Cell attachment assay in monolayers (peptide-coated Sepharose beads), BAEC; assay type: cell-based; conditions: for cell binding activity at the lower dose (words): BAEC monolayer, 6 mg peptide/ml compared with 12 mg/ml; for Nomarsky optics microscopy of peptide coated beads attached to BAEC (observation): 3 weeks of incubation; for overall activity at longer incubation times: microscopy, statement follows FF1 and BAEC paragraphs
Procedure: as §1, §2, §3, §4

FF1 in suspension = test: Cell attachment assay in cell suspensions (MTS assay); assay type: cell-based, human; conditions: followed over days
Text: Attachment of FF1 in suspension to peptides bound to sepharose beads was followed using the MTS assay. The MTS assay uses tetrazolium, which is taken up by viable cells and converted into formazan, which has a light absorption peak at 492 nm. The light absorbance at 492 (OD492) is directly proportional to the number of the living cells attached to the beads. Calibration curves were used to transform the OD492 readings into cell number, […]

FF1 = test: Toxicity assay for the peptides (MTS cell survival), FF1; assay type: cell-based, human
Procedure: (§5) A toxicity assay was done to determine the toxicity of the peptides tested to either one of the cell lines used. 15×10^3 cells (FF1 or BAEC) were seeded in 96 well plastic plates. After an overnight incubation, increasing concentrations of peptides in the range of 0.1-300 μg/ml were added to the wells. Cell survival was checked by the MTS assay after 2 and 5 days and normalized to the cell number of the controls (no peptide).

BAEC = test: Toxicity assay for the peptides (MTS cell survival), BAEC; assay type: cell-based, bovine
Procedure: as §5

[3] = FF1 monolayer, 6 mg peptide/ml Sepharose beads
[4] = FF1, FIG. 3a, peptide concentration not given
[5] = high concentrations (>100 μg/ml), 5 days
[6] = very high concentrations (>100 μg/ml), prolonged exposure (5 days)

Substance: C-Fic-a-K: peptide having the sequence KGYKYSYKVSEMKVRPAK (SEQ ID NO: 4) (listed as Homo sapiens)
- cell binding (extent reached) [1, 3]: 100%

Substance: C-Fic: peptide having the sequence KGYNYSYKSEMKVRPA (SEQ ID NO: 1); subsequence of human ficolin (listed as Homo sapiens)
- extent of cell binding ([1]; FF1, 6 mg peptide/ml, after 96 hours of incubation): about 30%
- cell binding activity at the lower dose (words) ([1]; FF1 monolayer): no reactivity
- cell binding activity at the lower dose (words) ([1]; FF1 monolayer, listed as C-fic): did not attach; also recorded: looses its activity; also recorded: inactive
- cell binding (extent reached) ([1]; FF1 monolayer, 12 mg peptide/ml, up to 150 hours): 100%
- cell binding activity at the lower dose (words) [2]: completely looses reactivity
- cell binding activity at the lower dose (words) ([2]; listed as C-fic): did not attach; also recorded: some activity
- extent of cell binding ([2]; BAEC, 6 mg peptide/ml, after 96 hours of incubation): about 30%

Substance: C-M-Fic2: peptide having the sequence KGYKYSYKGGWTVFQRRMDGSVDFYR (SEQ ID NO: 8) (listed as Homo sapiens)
- cell binding (extent reached) [1, 4]: 100%
- kinetic profile of cell binding [1, 4]: good kinetic profile of cell binding (fast attachment)

Substance: C-M-Fic2K: peptide having the sequence KGYKYSYKGGWTVFQRRMDGSVDFYRK (SEQ ID NO: 6) (listed as Homo sapiens)
- cell binding (extent reached) [1, 4]: 100%
- kinetic profile of cell binding [1, 4]: good kinetic profile of cell binding (fast attachment)

Substance: C-M-Fic-a-K: peptide having the sequence KGYKYSYKVSEMKFQRRMDGSVDFYRK (SEQ ID NO: 7) (listed as Homo sapiens)
- rate / kinetics of cell binding compared with positive control PreC ([1]; FF1 monolayer, 6 mg peptide/ml): accelerated the kinetics of cell binding

Substance: C-M-Fic: peptide having the sequence KGYNYSYKVSEMKFQRRVDGSVDFYRK (SEQ ID NO: 3) (listed as Homo sapiens)
- time to saturated attachment [1]: 72 h
- Nomarsky optics microscopy of peptide coated beads attached to FF1 (observation) ([1]; FF1): aggregates of cells and beads formed
- time to reach 100% / saturated cell binding ([1]; FF1 monolayer, 6 mg peptide/ml): 96 h
- cell binding (extent reached) [1, 3]: 100%
- cell binding activity at the lower dose (words) ([1]; FF1 monolayer): strongly affected by the decrease
- cell binding activity at the lower dose (words) ([1]; FF1 monolayer, listed as C-M-fic): strongly affected by the lowerdose
- time to reach 100% / saturated cell binding ([1]; FF1 monolayer, 6 mg peptide/ml, listed as C-M-fic): ≤ 96 h
- rate of cell binding compared to the lower concentration ([1]; FF1 monolayer, 12 mg peptide/ml): slightly faster cell binding
- time to reach 100% cell binding ([1]; FF1 monolayer, higher dose (12 mg/ml)): 20 h
- cell binding activity at the lower dose (words) [2]: slower rate at the lower concentration
- Nomarsky optics microscopy of peptide coated beads attached to BAEC (observation) ([2]; BAEC): formation of small tubes
- overall activity at longer incubation times [2]: also active
- attachment of FF1 cells in suspension to coated sepharose beads over time (words) (FF1 in suspension; listed as C-M-fic): an increase in cell number is detected after the first day
- attachment of FF1 cells in suspension to coated sepharose beads over time (words) (FF1 in suspension; listed as CM-fic): stable for at least three days
- cell survival, normalized to controls (FF1; [5]): about 50%
- toxicity (FF1; [6]): some minor toxicity
- cell survival, normalized to controls (BAEC; [5]): about 50%
- toxicity (BAEC; [6]): some minor toxicity

Substance: M-Fic-K: peptide having the sequence GGWTVFQRRMDGSVDFYRK (SEQ ID NO: 5) (listed as Homo sapiens)
- activity in comparison with the positive control PreC-gamma ([1]; 6 mg peptide/ml): dramatic change in activity

Substance: M-Fic: peptide having the sequence GGWTVFQRRVDGSVDFYRK (SEQ ID NO: 2) (listed as Homo sapiens)
- time to saturated attachment [1]: 72 h
- Nomarsky optics microscopy of peptide coated beads attached to FF1 (observation) ([1]; FF1): aggregates of cells and beads formed
- time to reach 100% / saturated cell binding ([1]; FF1 monolayer, 6 mg peptide/ml): ≤ 24 h
- cell binding activity at the lower dose (words) ([1]; FF1 monolayer): retains its activity
- cell binding activity at the lower dose (words) ([1]; FF1 monolayer, listed as M-fic): retain most of its activity
- activity in comparison with the positive control PreC-gamma ([1]; 6 mg peptide/ml): initially inferior to the positive control
- cell binding activity at the lower dose (words) [2]: slight decrease
- Nomarsky optics microscopy of peptide coated beads attached to BAEC (observation) ([2]; BAEC): formation of small tubes
- overall activity at longer incubation times [2]: highest activity

Substance: PreC: positive control peptide KTRWYSMKKTTMKIIPFNR (SEQ ID NO: 10) (listed as Homo sapiens) [reference compound]
- cell binding (extent reached) [1, 3]: 100%
